The values below come from patent US8933244B2, “Stabilized active halogen solutions” (Lonza Inc., priority 2009, dated 2015).

The nature of series [1]: Continuous flow mixing of stabilizer solution with sodium hypochlorite: temperature excursion and pH change. The class given is physicochemical. The note with it: for ΔpH: 12.2% NaOCl (initial pH 12.6); for ΔT: 12.2% NaOCl. How it is done:
For each data point, the combined flow rates of the stabilizer and hypochlorite solutions were adjusted in order to maintain the desired molar ratio of NaOCl to active ingredient (A.I.). The solution temperature was recorded before the onset of flow and after combination with the hypochlorite solution. In addition, the final pH of the resulting collected solution was recorded after a 2 min interval of continuous flow.
Stabilizer solutions of the present invention were prepared via dissolution of at least one substituted N-hydrogen compound (DMH=5,5-dimethylhydantoin and/or Amine=ethanolamine, morpholine) (i), and of at least one additional containing nitrogen compound (ii) in water with the pH adjusted to 7-9.5, if necessary. […]
Sodium hypochlorite solutions were used directly at high concentration (12.2%).
Consistent with known ammonia and urea chemistry (vide supra), mixing a halogen source and ammonium salt solutions at Cl2:N ratios greater than 1 (e.g., 2-4) usually results in substantial exothermic temperature excursions (ΔT, in Kelvin) and reductions in pH due to decomposition reactions that occur.

The conditions of series [2]: high pH (12.4-13.4); Cl2:urea ratios of 1:1-2:1; WO 2007/089539 A2 / US 2007/0178173 A1; cited from earlier work.
Series [3] relates to Enterobacter aerogenes (ATCC 13048) and Pseudomonas aeruginosa (ATCC 15442). In words: Biocidal efficacy in paper pulp slurry (modified ASTM E: 1839-07). It is filed as cell-based. Particulars: 2 ppm total Cl2, 3 h, 34° C., DMH 1.81 ppm alone. Here is the method: The conditions of the experiment were a modification of the method described in ASTM E: 1839-07. A 1% pulp slurry was prepared via shredding white laser printer paper and adding to an appropriate amount of 400 ppm alkalinity (as CaCO3) water solution. The slurry was rapidly mixed while heating to 98(±2) ° C., followed by cooling to room temperature. The pH was adjusted to 8.5 with 1N H2SO4 and the slurry was diluted to 0.5% with deionized water. A 98(±1) mL aliquot was transferred to a 125 mL sample flask and steam sterilized and cooled to room temperature prior to use.
Stock solutions of NaOCl at either 51,000 ppm or 400 ppm (as Cl2) were freshly prepared prior to the organism challenge test. Dilutions of the test samples were made in order to prepare a sample solution at the desired Cl2:Active Ingredient molar ratio and the flasks were dosed according to the target total Cl2 desired (2 ppm total Cl2).
Twenty four hour cultures of Enterobacter aerogenes (ATCC 13048) and Pseudomonas aeruginosa (ATCC 15442) were used for the testing. Microbiological counts were performed using tryptic soy agar (TSA) […] by known pour plate techniques. Final bacterial concentration of the inoculum was between 2×10^6 and 1×10^7 CFU/mL. 1 mL of the inoculum was then placed into each of the sample to be tested and the samples placed onto a shaker for 3 hours at 34° C. After the 3 hour contact time, DIFCO Dey-Engley (D/E) Neutralizing Broth was used as the first serial dilution tube for biocide neutralization and dilutions were plated through 10^6.

Setting [4] is: 5% active ingredients, Cl2:NH3 or Cl2:Urea 2.5.
[5] abbreviates: 15% active ingredients, Cl2:NH3 or Cl2:Urea 8.
The mark [6] stands for this setting: 15% active ingredients, Cl2:NH3 or Cl2:Urea 2.
Where [7] appears, read: 15% active ingredients, Cl2:NH3 or Cl2:Urea 4.
[8] abbreviates: 17% active ingredients, Cl2:NH3 or Cl2:Urea 4.

On to `NC(N)=O` [Urea, urea], for which, in series [1] (setting [4]), the ΔpH is on record as −0.5 and the ΔT came out at 18 K. Besides, in series [1] (setting [5]), the ΔpH is on record as −0.7 and the ΔT was determined as 36 K. The total halogen yield in series [2] was 48-69%.
With `CC1(C)NC(=O)NC1=O` [DMH, 5,5-dimethylhydantoin], the “Efficacy (Δlg)” value is recorded as 0.1 Δlg in series [3] (box paper pulp slurry), 3.2 Δlg in series [3] (fine paper pulp slurry (Table 3 series)) and 2.9 Δlg in series [3] (fine paper pulp slurry (Table 4 series)).
Turning to `Br.N` [NH4Br, ammonium bromide], the results for the ΔpH in series [1] (setting [6]), in series [1] (setting [7]) and in series [1] (setting [8]) were −9.5, −5.3 and −5.3, respectively. The ΔT amounted to 37 K in series [1] (setting [6]), 31 K in series [1] (setting [7]) and 34 K in series [1] (setting [8]).
